How the values were obtained:
MAPKAPK2 = MAPKAPK2 (Homo sapiens, UniProt P49137); assay: KINOMEscan: MAPKAPK2; format: binding; conditions: 1000 nM, read-out: Percent Control
CSNK1G2 = CSNK1G2 (Homo sapiens, UniProt P78368); assay: KINOMEscan: CSNK1G2; format: binding; conditions: 1000 nM, read-out: Percent Control
MEK2 = MEK2 (Homo sapiens, UniProt P36507); assay: KINOMEscan: MEK2; format: binding; conditions: 1000 nM, read-out: Percent Control
[1] = target: JAK1(JH2domain-pseudokinase) (Homo sapiens, UniProt P23458); assay: KINOMEscan: JAK1(JH2domain-pseudokinase); format: binding; conditions: 1000 nM, read-out: Percent Control
KIT(V559D) = KIT(V559D) (Homo sapiens, UniProt P10721, V559D); assay: KINOMEscan: KIT(V559D); format: binding; conditions: 1000 nM, read-out: Percent Control
[2] = target: RSK2(Kin.Dom.2-C-terminal) (Homo sapiens, UniProt P51812); assay: KINOMEscan: RSK2(Kin.Dom.2-C-terminal); format: binding; conditions: 100 nM, read-out: Percent Control
[3] = target: RSK3(Kin.Dom.2-C-terminal) (Homo sapiens, UniProt Q15349); assay: KINOMEscan: RSK3(Kin.Dom.2-C-terminal); format: binding; conditions: 100 nM, read-out: Percent Control
LIMK2 = LIMK2 (Homo sapiens, UniProt P53671); assay: KINOMEscan: LIMK2; format: binding; conditions: 1000 nM, read-out: Percent Control
RIOK2 = RIOK2 (Homo sapiens, UniProt Q9BVS4); assay: KINOMEscan: RIOK2; format: binding; conditions: 100 nM, read-out: Percent Control
RIOK2, sequence (Q9BVS4 whole entry): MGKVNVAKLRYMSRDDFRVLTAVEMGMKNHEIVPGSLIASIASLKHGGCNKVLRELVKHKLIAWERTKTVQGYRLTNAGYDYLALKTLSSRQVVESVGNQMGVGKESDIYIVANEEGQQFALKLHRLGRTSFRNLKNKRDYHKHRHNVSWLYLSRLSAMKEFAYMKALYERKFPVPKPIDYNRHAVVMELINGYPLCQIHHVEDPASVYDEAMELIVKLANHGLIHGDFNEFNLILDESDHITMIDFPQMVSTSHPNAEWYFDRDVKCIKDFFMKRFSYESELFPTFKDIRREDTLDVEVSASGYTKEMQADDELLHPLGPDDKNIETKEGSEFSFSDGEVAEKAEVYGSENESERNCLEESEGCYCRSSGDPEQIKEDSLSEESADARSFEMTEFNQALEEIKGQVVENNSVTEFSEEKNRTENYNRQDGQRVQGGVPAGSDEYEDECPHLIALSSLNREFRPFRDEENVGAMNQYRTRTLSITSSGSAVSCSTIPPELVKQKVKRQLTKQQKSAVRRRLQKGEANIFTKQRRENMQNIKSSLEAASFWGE

[4] = target: TYK2(JH2domain-pseudokinase) (Homo sapiens, UniProt P29597); assay: KINOMEscan: TYK2(JH2domain-pseudokinase); format: binding; conditions: 100 nM, read-out: Percent Control
GRK3 = GRK3 (Homo sapiens, UniProt P35626); assay: KINOMEscan: GRK3; format: binding; conditions: 1000 nM, read-out: Percent Control
MEK3 = MEK3 (Homo sapiens, UniProt P46734); assay: KINOMEscan: MEK3; format: binding; conditions: 1000 nM, read-out: Percent Control
Thyroid Hormone = assay: Eurofins Diversity Panel; format: binding; conditions: rat, Conc. 10 μM
MEK4 = MEK4 (Homo sapiens, UniProt P45985); assay: KINOMEscan: MEK4; format: binding; conditions: 1000 nM, read-out: Percent Control
FLT3(ITD) = assay: KINOMEscan: FLT3(ITD); format: binding, human; conditions: 1000 nM
WEE1 = WEE1 (Homo sapiens, UniProt P30291); assay: KINOMEscan: WEE1; format: binding; conditions: 100 nM, read-out: Percent Control
Opiate μ(OP3, MOP) = Opiate μ(OP3, MOP) (Homo sapiens, UniProt P35372); assay: Eurofins Diversity Panel; format: binding; conditions: hum, Conc. 10 μM
CIT = CIT (Homo sapiens, UniProt O14578); assay: KINOMEscan: CIT; format: binding; conditions: 1000 nM, read-out: Percent Control
AMPK-alpha1 = AMPK-alpha1 (Homo sapiens, UniProt Q13131); assay: KINOMEscan: AMPK-alpha1; format: binding; conditions: 1000 nM, read-out: Percent Control
MET = MET (Homo sapiens, UniProt P08581); assay: KINOMEscan: MET; format: binding; conditions: 1000 nM, read-out: Percent Control
[5] = target: CDK9 in complex with Cyclin T1 (Homo sapiens, UniProt P50750); assay: NanoBRET target engagement assay (HEK293); format: cell-based
SGK3 = SGK3 (Homo sapiens, UniProt Q96BR1); assay: KINOMEscan: SGK3; format: binding; conditions: 100 nM, read-out: Percent Control
Glutamate, Kainate = assay: Eurofins Diversity Panel; format: binding; conditions: rat, Conc. 10 μM
[6] = system: HG-3 and MEC-1 cell lines; assay: Western blot of treated CLL cell lines; format: cell-based, human
ROCK1 = ROCK1 (Homo sapiens, UniProt Q13464); assay: KINOMEscan: ROCK1; format: binding; conditions: 100 nM, read-out: Percent Control
ROCK1, sequence (Q13464 whole entry): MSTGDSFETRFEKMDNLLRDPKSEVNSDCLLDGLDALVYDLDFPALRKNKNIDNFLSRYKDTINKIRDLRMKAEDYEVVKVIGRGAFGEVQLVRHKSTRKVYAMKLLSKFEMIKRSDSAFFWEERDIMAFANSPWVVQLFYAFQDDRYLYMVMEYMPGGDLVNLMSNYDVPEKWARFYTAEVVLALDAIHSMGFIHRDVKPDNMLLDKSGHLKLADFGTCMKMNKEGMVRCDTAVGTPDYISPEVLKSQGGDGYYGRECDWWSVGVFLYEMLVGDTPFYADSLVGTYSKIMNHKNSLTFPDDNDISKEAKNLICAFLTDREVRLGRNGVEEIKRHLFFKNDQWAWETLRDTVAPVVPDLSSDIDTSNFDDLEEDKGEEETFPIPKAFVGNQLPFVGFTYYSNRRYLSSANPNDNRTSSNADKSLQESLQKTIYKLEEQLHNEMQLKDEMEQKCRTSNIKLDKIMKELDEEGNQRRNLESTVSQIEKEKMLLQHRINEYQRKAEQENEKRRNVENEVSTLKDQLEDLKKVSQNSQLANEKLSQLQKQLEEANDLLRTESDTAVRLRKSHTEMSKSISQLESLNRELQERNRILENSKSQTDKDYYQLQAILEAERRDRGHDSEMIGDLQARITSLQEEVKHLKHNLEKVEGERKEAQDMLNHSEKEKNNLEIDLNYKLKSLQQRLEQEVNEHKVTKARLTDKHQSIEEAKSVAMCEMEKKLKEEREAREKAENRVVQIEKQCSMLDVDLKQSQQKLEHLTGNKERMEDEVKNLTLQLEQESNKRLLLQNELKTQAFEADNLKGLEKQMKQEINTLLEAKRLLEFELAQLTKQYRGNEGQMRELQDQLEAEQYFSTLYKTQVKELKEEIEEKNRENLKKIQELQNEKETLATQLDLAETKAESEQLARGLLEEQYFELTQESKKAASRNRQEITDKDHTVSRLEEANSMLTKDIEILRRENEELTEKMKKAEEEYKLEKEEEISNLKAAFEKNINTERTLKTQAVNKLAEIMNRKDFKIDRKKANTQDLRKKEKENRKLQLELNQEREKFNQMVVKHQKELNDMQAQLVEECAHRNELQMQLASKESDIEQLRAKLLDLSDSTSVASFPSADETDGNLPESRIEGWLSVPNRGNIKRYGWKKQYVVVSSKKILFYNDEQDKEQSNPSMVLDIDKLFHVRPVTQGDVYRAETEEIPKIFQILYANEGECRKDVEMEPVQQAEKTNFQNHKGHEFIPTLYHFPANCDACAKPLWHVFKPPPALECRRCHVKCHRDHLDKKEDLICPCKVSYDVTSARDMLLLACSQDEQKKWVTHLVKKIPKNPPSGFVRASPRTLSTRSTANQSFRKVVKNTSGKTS

FRK = FRK (Homo sapiens, UniProt P42685); assay: KINOMEscan: FRK; format: binding; conditions: 1000 nM, read-out: Percent Control
EIF2AK1 = EIF2AK1 (Homo sapiens, UniProt Q9BQI3); assay: KINOMEscan: EIF2AK1; format: binding; conditions: 1000 nM, read-out: Percent Control
[7] = target: Serotonin (5-Hydroxytryptamine) 5-HT3) (Homo sapiens, UniProt P46098); assay: Eurofins Diversity Panel; format: binding; conditions: hum, Conc. 10 μM
Serotonin (5-Hydroxytryptamine) 5-HT3), sequence (P46098 24-478): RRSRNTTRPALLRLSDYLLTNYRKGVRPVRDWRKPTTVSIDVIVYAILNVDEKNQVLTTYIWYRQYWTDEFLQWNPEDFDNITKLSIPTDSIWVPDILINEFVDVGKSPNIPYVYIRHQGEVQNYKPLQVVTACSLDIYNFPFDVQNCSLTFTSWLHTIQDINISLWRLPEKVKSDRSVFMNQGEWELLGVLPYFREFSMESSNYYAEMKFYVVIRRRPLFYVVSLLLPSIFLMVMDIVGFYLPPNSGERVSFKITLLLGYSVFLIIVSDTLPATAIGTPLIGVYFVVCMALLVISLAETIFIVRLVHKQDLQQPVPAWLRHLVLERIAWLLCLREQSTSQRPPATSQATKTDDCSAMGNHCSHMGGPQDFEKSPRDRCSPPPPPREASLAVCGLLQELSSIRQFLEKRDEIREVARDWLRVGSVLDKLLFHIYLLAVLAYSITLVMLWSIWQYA

ROS1 = ROS1 (Homo sapiens, UniProt P08922); assay: KINOMEscan: ROS1; format: binding; conditions: 100 nM, read-out: Percent Control
Dopamine D4.2 = Dopamine D4.2 (Homo sapiens, UniProt P21917, DEL265-296); assay: Eurofins Diversity Panel; format: binding; conditions: hum, Conc. 10 μM
Dopamine D4.2, sequence (P21917 with tags, fused parts or gaps DEL265-296): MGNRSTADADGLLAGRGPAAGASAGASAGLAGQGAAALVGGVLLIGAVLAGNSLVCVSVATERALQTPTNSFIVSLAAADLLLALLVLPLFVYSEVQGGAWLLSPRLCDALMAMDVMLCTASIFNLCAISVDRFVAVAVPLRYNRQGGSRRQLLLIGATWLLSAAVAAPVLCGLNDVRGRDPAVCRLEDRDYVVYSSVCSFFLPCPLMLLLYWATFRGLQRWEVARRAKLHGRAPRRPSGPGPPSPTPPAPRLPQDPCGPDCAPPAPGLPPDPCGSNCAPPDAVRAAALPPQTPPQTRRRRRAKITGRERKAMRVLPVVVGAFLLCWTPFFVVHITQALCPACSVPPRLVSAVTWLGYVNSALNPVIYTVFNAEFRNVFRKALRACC

CAMK2B = CAMK2B (Homo sapiens, UniProt Q13554); assay: KINOMEscan: CAMK2B; format: binding; conditions: 1000 nM, read-out: Percent Control
AURKB = AURKB (Homo sapiens, UniProt Q96GD4); assay: KINOMEscan: AURKB; format: binding; conditions: 1000 nM, read-out: Percent Control
AURKB, sequence (Q96GD4 whole entry): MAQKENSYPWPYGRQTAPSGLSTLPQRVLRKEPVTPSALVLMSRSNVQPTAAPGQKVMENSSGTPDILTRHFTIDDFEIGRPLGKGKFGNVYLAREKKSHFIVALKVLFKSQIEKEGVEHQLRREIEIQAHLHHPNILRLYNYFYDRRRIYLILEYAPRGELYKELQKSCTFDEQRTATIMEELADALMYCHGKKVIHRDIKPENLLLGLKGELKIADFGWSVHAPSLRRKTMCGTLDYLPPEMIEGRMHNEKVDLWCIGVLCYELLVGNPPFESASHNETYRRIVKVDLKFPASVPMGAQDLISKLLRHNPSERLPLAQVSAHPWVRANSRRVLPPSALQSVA

LYN = LYN (Homo sapiens, UniProt P07948); assay: KINOMEscan: LYN; format: binding; conditions: 1000 nM, read-out: Percent Control
LYN, sequence (P07948 whole entry): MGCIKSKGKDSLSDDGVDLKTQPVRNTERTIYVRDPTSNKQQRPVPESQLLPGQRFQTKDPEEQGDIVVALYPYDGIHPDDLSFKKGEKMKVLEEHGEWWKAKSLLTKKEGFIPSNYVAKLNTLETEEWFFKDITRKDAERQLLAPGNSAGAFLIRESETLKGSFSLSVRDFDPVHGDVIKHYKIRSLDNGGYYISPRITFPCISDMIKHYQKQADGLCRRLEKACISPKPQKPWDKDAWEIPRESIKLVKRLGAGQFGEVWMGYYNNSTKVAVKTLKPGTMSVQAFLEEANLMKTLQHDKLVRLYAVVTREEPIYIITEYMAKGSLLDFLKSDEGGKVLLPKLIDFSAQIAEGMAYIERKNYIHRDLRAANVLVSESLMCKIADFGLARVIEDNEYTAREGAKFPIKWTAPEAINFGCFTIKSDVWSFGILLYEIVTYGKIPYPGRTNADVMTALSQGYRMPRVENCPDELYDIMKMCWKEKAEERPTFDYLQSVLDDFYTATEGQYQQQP

STK16 = STK16 (Homo sapiens, UniProt O75716); assay: KINOMEscan: STK16; format: binding; conditions: 100 nM, read-out: Percent Control
LOK = LOK (Homo sapiens, UniProt O94804); assay: KINOMEscan: LOK; format: binding; conditions: 1000 nM, read-out: Percent Control
LOK, sequence (O94804 whole entry): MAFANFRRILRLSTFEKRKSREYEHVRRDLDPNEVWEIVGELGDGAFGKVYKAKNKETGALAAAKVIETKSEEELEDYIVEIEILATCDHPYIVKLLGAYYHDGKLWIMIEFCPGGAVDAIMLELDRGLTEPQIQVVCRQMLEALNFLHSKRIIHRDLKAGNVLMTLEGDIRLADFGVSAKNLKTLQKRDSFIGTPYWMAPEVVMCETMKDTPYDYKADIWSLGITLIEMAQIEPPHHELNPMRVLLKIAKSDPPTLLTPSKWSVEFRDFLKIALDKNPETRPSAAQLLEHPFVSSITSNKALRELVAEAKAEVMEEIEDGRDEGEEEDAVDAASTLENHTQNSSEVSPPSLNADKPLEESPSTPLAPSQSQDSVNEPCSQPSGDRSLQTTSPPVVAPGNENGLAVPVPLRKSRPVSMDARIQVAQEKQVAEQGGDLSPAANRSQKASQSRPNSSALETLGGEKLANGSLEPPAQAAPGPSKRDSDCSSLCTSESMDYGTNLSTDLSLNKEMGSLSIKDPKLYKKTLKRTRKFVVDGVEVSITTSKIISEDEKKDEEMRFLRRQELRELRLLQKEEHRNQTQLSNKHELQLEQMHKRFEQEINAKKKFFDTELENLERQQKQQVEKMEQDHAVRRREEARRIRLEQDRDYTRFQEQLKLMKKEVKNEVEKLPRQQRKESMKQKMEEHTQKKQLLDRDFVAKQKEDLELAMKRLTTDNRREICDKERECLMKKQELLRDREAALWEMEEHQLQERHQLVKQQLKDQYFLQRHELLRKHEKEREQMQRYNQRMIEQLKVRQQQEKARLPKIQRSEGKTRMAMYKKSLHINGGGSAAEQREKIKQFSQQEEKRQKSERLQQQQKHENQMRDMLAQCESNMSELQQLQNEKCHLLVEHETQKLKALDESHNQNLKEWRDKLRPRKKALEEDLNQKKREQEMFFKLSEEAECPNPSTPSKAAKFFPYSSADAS

CAMK1 = CAMK1 (Homo sapiens, UniProt Q14012); assay: KINOMEscan: CAMK1; format: binding; conditions: 1000 nM, read-out: Percent Control
RIPK2 = RIPK2 (Homo sapiens, UniProt O43353); assay: KINOMEscan: RIPK2; format: binding; conditions: 100 nM, read-out: Percent Control
DRAK2 = DRAK2 (Homo sapiens, UniProt O94768); assay: KINOMEscan: DRAK2; format: binding; conditions: 1000 nM, read-out: Percent Control
Imidazoline I2, Central = assay: Eurofins Diversity Panel; format: binding; conditions: rat
EPHA6 = EPHA6 (Homo sapiens, UniProt Q9UF33); assay: KINOMEscan: EPHA6; format: binding; conditions: 1000 nM, read-out: Percent Control

CSNK1G2, sequence (P78368 whole entry): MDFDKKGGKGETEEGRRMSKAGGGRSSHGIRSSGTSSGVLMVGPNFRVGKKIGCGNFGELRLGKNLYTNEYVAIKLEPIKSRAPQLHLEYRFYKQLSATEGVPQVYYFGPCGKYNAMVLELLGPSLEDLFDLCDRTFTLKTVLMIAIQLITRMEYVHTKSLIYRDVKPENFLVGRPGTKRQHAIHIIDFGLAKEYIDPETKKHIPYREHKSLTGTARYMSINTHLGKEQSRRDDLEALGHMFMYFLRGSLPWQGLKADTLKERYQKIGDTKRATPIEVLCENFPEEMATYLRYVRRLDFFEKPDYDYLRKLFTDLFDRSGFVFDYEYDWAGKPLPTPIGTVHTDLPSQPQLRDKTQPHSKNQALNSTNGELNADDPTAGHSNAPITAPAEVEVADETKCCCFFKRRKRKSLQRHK

SMILES: COc1cc(F)ccc1-c1cc(Nc2cc(CS(C)(=N)=O)ccn2)ncc1F (centres unmarked) [VIP152]
- remaining binding at 1 µM (MAPKAPK2): 81%
- remaining binding at 1 µM (CSNK1G2): 93%
- remaining binding at 1 µM (MEK2): 88%
- remaining binding at 1 µM [1]: 96%
- remaining binding at 1 µM (KIT(V559D)): 82%
- remaining binding at 0.1 µM [2]: 100%
- remaining binding at 0.1 µM [3]: 100%
- remaining binding at 1 µM (LIMK2): 91%
- remaining binding at 0.1 µM (RIOK2): 100%
- remaining binding at 0.1 µM [4]: 100%
- remaining binding at 1 µM (GRK3): 100%
- remaining binding at 1 µM (MEK3): 84%
- % Inh. (Thyroid Hormone): 20%
- remaining binding at 1 µM (MEK4): 89%
- Percent Control (FLT3(ITD)): 87%
- remaining binding at 0.1 µM (WEE1): 98%
- inhibition at 10 µM (Opiate μ(OP3, MOP)): 8%
- remaining binding at 1 µM (CIT): 43%
- remaining binding at 1 µM (AMPK-alpha1): 91%
- remaining binding at 1 µM (MET): 26%
- potency versus the other inhibitors [5]: higher potency
- remaining binding at 0.1 µM (SGK3): 100%
- % Inh. (Glutamate, Kainate): 13%
- MCL1 protein levels ([6]; 0.1 µM, 8 h): decreased
- Phosphorylation of serine 5 (marker of CDK7 activity) ([6]; 0.1 µM, 8 h): not diminished
- glycogen synthase phosphorylation at serine 641 (marker of GSK3α/β activity) ([6]; 0.1 µM, 8 h): did not observe a decrease
- phospho-serine 2 (pS2) of RNA Polymerase II ([6]; 0.1 µM, 8 h): decrease
- MCL1 ([6]; 1 µM, across 24 h): decreased
- c-MYC ([6]; 1 µM, across 24 h): decreased
- pS2 ([6]; 1 µM, across 24 h): decreased
- pS5 ([6]; 1 µM, across 24 h): minimal change
- PARP cleavage (induction of apoptosis) ([6]; beginning at six hours): detect PARP cleavage
- remaining binding at 0.1 µM (ROCK1): 100%
- remaining binding at 1 µM (FRK): 47%
- remaining binding at 1 µM (EIF2AK1): 100%
- inhibition at 10 µM [7]: -3%
- remaining binding at 0.1 µM (ROS1): 100%
- inhibition at 10 µM (Dopamine D4.2): 32%
- remaining binding at 1 µM (CAMK2B): 65%
- remaining binding at 1 µM (AURKB): 57%
- remaining binding at 1 µM (LYN): 90%
- remaining binding at 0.1 µM (STK16): 100%
- remaining binding at 1 µM (LOK): 53%
- remaining binding at 1 µM (CAMK1): 78%
- remaining binding at 0.1 µM (RIPK2): 100%
- remaining binding at 1 µM (DRAK2): 100%
- IC50 (Imidazoline I2, Central): 1400 nM
- Ki (Imidazoline I2, Central): 930 nM
- % Inh. (Imidazoline I2, Central; Conc. 10 μM): 82%
- remaining binding at 1 µM (EPHA6): 90%
